In patent US9802895B2, “Indole and benzimidazolecarboxamides as insecticides and acaricides” (BAYER CROPSCIENCE AKTIENGESELLSCHAFT, priority 2014, dated 2017):

Columns and labels:
[1] = test system: cattle ticks (Boophilus microplus) Parkhurst strain, SP-resistant; assay: Boophilus microplus dip test; assay type: in vivo; details: 20 ppm, assessed after 7 days
Description: Boophilus microplus—Dip Test
Test animals: cattle ticks (Boophilus microplus) Parkhurst strain, SP-resistant
Solvent: dimethyl sulphoxide
10 mg of active compound are dissolved in 0.5 ml of dimethyl sulphoxide. For the purpose of producing a suitable formulation, the active compound solution is diluted with water to the concentration desired in each case.
This active compound preparation is pipetted into tubes. 8-10 engorged adult female cattle ticks (Boophilus microplus) are transferred into a further tube with holes. The tube is immersed into the active compound formulation, and all the ticks are completely wetted. After the liquid has run out, the ticks are transferred on filter discs into plastic dishes and stored in a climate-controlled room.
The efficacy is assessed after 7 days by laying of fertile eggs. Eggs which are not visibly fertile are stored in a climate-controlled cabinet until the larvae hatch after about 42 days. An efficacy of 100% means that none of the ticks has laid any fertile eggs; 0% means that all the eggs are fertile.

[2] = test system: larvae of the mustard beetle (Phaedon cochleariae); assay: Phaedon cochleariae spray test (PHAECO); assay type: in vivo; details: 100 g/ha, after 7 days
Method in brief: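 Compound dissolved in acetone/dimethylformamide and diluted with water containing 1000 ppm alkylaryl polyglycol ether emulsifier to test concentrations. Efficacy in % scored after 7 days: 100% means all beetle larvae killed, 0% none killed.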

[3] = test system: adult cat fleas (Ctenocephalides felis); assay: Ctenocephalides felis oral test (CTECFE); assay type: in vivo; details: 100 ppm, oral in cattle blood, after 2 days
Method in brief: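 About 20 unfed adult fleas fed through a parafilm membrane on citrated cattle blood containing compound, added from a DMSO stock and diluted to test concentration. Kill % was scored after 2 days, where 100% means all fleas dead and 0% means none.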

[4] = test system: L1 larvae of the Australian sheep blowfly (Lucilia cuprina); assay: Lucilia cuprina test (LUCICU); assay type: in vivo; details: 100 ppm, after 2 days
Method in brief: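 About 20 L1 larvae placed in vessels with minced horsemeat containing compound (DMSO formulation diluted with water to test concentration). Kill in % scored after 2 days.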

[5] = test system: Tick nymphs (Amblyomma hebraeum); assay: Amblyomma hebraeum test (tick nymph immersion); assay type: in vivo; details: 100 ppm, after 42 days
Description: Amblyomma Hebaraeum Test Solvent: dimethyl sulphoxide To produce a suitable active compound formulation, 10 mg of active compound are mixed with 0.5 ml of dimethyl sulphoxide, and the concentrate is diluted with water to the desired concentration. Tick nymphs (Amblyomma hebraeum) are placed into perforated plastic beakers and immersed in the desired concentration for one minute. The ticks are transferred on filter paper into a Petri dish and stored in a climate-controlled cabinet. After 42 days, the kill in % is determined. 100% means that all of the ticks have been killed; 0% means that none of the ticks have been killed.

[6] = test system: adult houseflies (Musca domestica); assay: Musca domestica test (MUSCDO); assay type: in vivo; details: 100 ppm, after 2 days
Method in brief: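 Ten adult houseflies housed with a sponge carrying sugar solution plus compound, formulated in DMSO and diluted with water to test concentration. Mortality (%) scored after 2 days; 100% = all flies dead.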

[7] = test system: caterpillars of the armyworm (Spodoptera frugiperda); assay: Spodoptera frugiperda spray test (SPODFR); assay type: in vivo; details: 100 g/ha, spray, after 7 days
Method in brief: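 Maize leaf discs sprayed with compound in acetone/dimethylformamide diluted in water with 1000 ppm alkylaryl polyglycol ether emulsifier, dried, then infested with armyworm caterpillars. Efficacy in % after 7 days (100% = all caterpillars killed, 0% = none).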

[8] = test system: greenhouse red spider mite (Tetranychus urticae); assay: Tetranychus urticae spray test, OP-resistant (TETRUR); assay type: in vivo; details: 100 g/ha, spray, after 6 days
Method in brief: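 Bean (Phaseolus vulgaris) leaf discs infested with all stages of OP-resistant Tetranychus urticae were sprayed with compound in acetone/DMF diluted in water with 1000 ppm emulsifier. Efficacy was scored as % mites killed after 6 days.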

[9] = test system: engorged adult female cattle ticks (Boophilus microplus); assay: Boophilus microplus injection test (BOOPMI inj); assay type: in vivo; details: assessed after 7 days
Method in brief: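 1 μl of compound in DMSO is injected into the abdomen of 5 engorged females per group, which are then held in a climate-controlled room. After 7 days, egg-laying and egg fertility are scored, with unclear eggs kept about 42 days until hatch; 100% means no fertile eggs laid.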

[10] = log P by HPLC (EEC directive 79/831 Annex V.A8); assay type: physicochemical; details: 43° C., acidic range pH 2.7; for log P: HPLC, reversed-phase column (C18)
Method in brief: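 Measured by reversed-phase HPLC on a C18 column at 43 °C per EEC directive 79/831 Annex V.A8. Calibration used unbranched alkan-2-ones (C3–C16) of known log P.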

[11] = test system: L2 larvae of the banded cucumber beetle (Diabrotica balteata); assay: Diabrotica balteata drench test (DIABBA); assay type: in vivo; details: 20 ppm, 8 dat
Description: Diabrotica balteata—Drench Test (DIABBA) Solvent: 7 parts by weight of dimethylformamide Emulsifier: 2 parts by weight of alkylaryl polyglycol ether To produce a suitable active compound formulation, 1 part by weight of active compound is mixed with the specified amounts of solvent and emulsifier, and the concentrate is diluted with water to the desired concentration, it being necessary to include the volume of soil which is drenched in the calculation. It should be ensured that a concentration of 40 ppm of emulsifier in the soil is not exceeded. To produce further test concentrations, water is used for dilution. […] After one day, 25 L2 larvae of the banded cucumber beetle (Diabrotica balteata) are added. After 8 days, the efficacy in % is determined 100% means that all 5 plants have germinated and grown; 0% means that none of the plants has emerged.

[12] = test system: southern root-knot nematode (Meloidogyne incognita); assay: Meloidogyne incognita test; assay type: in vivo; details: 20 ppm, after 14 days
Description: Meloidogyne incognita Test Solvent: 125.0 parts by weight of acetone To produce a suitable active compound formulation, 1 part by weight of active compound is mixed with the stated amount of solvent and the concentrate is diluted with water to the desired concentration. Vessels are filled with sand, active compound solution, an egg/larvae suspension of the southern root-knot nematode (Meloidogyne incognita) and lettuce seeds. The lettuce seeds germinate and the plants develop. The galls develop on the roots. After 14 days, the nematicidal efficacy in % is determined by the formation of galls. 100% means that no galls were found; 0% means that the number of galls on the treated plants corresponds to the untreated control.

Row | Structure (SMILES) | efficacy (laying of fertile eggs) [1] | efficacy [2] | efficacy (kill in %) [3] | efficacy (kill in %) [4] | efficacy (kill in %) [5] | efficacy (kill in %) [6] | efficacy [7] | efficacy [8] | efficacy (laying of fertile eggs) [9] | log P [10] | chromatographic logP ([10]; reversed-phase C18 HPLC column, pH 2.7, HPLC) | % efficacy [11] | nematicidal efficacy (formation of galls) [12]
1 | CCn1c(C(=O)NC(c2ccc(F)c(C(F)(F)F)c2)C(F)(F)F)nc2cc(C(=O)NC3(C(N)=S)CC3)c(Cl)cc21 (stereo not drawn) [I-30, N5-(1-Carbamothioylcyclopropyl)-6-chloro-1-ethyl-N2-{2,2,2-trifluoro-1-[4-fluoro-3-(trifluoromethyl)phenyl]ethyl}-1H-benzimidazole-2,5-dicarboxamide] | 100% | 100% | 100% | 100% | 100% | 100% | 100% | 100% | 100% | 3.46 | 3.56 |  | 
2 | C#CCn1c(C(=O)NC(c2ccc(Cl)c(C(F)(F)F)c2)C(F)(F)F)cc2cc(C(=O)NC3(C(N)=S)CC3)c(Cl)cc21 (stereo not drawn) [I-19] |  | 100% | 100% | 100% |  | 100% | 100% | 100% | 100% | 3.73 |  | 100% | 90%
